Test results reported in ChEMBL document CHEMBL1146613, “Novel inhibitors of procollagen C-terminal proteinase. Part 1: diamino Acid hydroxamates” (Bioorg Med Chem Lett, 2003).

These compounds were tested against T1, Bone morphogenetic protein 1 (Homo sapiens, UniProt P13497) (assay: In vitro inhibitory activity against procollagen C-terminal proteinase (PCP) in HT1080 cells using synthetic peptide as substrate).
T1 sequence (P13497 whole entry): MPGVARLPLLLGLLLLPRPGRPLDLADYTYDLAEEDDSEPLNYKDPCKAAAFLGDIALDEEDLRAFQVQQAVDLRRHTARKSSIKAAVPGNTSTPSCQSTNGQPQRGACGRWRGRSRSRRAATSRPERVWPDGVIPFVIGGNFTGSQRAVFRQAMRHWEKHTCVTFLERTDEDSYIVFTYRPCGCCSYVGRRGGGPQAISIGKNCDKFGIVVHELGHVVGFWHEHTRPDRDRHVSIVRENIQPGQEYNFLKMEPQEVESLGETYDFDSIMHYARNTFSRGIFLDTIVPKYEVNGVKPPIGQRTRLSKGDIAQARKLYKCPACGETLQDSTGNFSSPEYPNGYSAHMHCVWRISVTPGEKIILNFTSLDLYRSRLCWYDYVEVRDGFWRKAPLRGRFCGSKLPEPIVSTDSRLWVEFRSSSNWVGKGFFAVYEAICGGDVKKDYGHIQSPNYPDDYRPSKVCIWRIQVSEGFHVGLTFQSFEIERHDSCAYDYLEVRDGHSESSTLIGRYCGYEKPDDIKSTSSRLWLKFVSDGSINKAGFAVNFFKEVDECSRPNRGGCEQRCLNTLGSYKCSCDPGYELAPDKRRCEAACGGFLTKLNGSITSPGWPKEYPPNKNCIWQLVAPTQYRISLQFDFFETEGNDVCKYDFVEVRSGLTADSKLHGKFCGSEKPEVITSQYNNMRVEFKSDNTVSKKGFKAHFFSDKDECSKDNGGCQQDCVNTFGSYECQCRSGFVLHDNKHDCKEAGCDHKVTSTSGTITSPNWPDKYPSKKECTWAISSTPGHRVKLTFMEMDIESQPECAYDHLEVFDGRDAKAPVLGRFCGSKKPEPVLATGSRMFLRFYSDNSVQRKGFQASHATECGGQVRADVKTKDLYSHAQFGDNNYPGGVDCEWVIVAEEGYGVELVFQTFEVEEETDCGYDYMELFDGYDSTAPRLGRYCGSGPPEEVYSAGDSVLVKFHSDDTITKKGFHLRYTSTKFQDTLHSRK
Assay type: cell-based, HT-1080

Ki [nM]	Structure (SMILES)
8	COc1ccc(S(=O)(=O)N(Cc2ccc3c(c2)OCO3)[C@H](CNC(=O)c2ccccc2-n2cccc2)C(=O)NO)cc1
350	COc1ccc(S(=O)(=O)N(Cc2ccc3c(c2)OCO3)[C@H](CCCCNC(=O)c2ccccc2)C(=O)NO)cc1
18	COc1ccc(S(=O)(=O)N(Cc2ccc3c(c2)OCO3)[C@H](CNC(=O)NS(=O)(=O)c2ccc(Cl)cc2)C(=O)NO)cc1
530	COc1ccc(S(=O)(=O)N(Cc2ccc3c(c2)OCO3)[C@H](CCNC(=O)c2ccccc2-n2cccc2)C(=O)NO)cc1
250	COc1ccc(S(=O)(=O)N(Cc2ccc3c(c2)OCO3)[C@H](CNC(=O)CNc2cnccn2)C(=O)NO)cc1
100	COc1ccc(S(=O)(=O)N(Cc2ccc3c(c2)OCO3)[C@H](CCCNC(=O)c2ccccc2)C(=O)NO)cc1
1010	COc1ccc(S(=O)(=O)N(Cc2ccc3c(c2)OCO3)[C@H](CNCc2ccc(NC(C)=O)cc2)C(=O)NO)cc1
1960	COc1ccc(S(=O)(=O)N(Cc2ccc3c(c2)OCO3)[C@H](CNC(=O)c2cnoc2C)C(=O)NO)cc1
470	COc1ccc(S(=O)(=O)N(Cc2ccc3c(c2)OCO3)[C@H](CCNC(=O)c2ccccc2)C(=O)NO)cc1
28	COc1ccc(S(=O)(=O)N(Cc2ccc3c(c2)OCO3)[C@H](CNS(=O)(=O)Cc2cccc([N+](=O)[O-])c2)C(=O)NO)cc1
22	CCOc1ccc(NC(=O)NC[C@H](C(=O)NO)N(Cc2ccc3c(c2)OCO3)S(=O)(=O)c2ccc(OC)cc2)cc1
410	COc1ccc(S(=O)(=O)N(Cc2ccc3c(c2)OCO3)[C@H](CCNC(=O)CCc2nc3ccccc3[nH]2)C(=O)NO)cc1
86	COc1ccc(S(=O)(=O)N(Cc2ccc3c(c2)OCO3)[C@H](CCNC(=O)c2cnoc2C)C(=O)NO)cc1
470	CCOC(=O)C1CCC(NCC(=O)NCC[C@H](C(=O)NO)N(Cc2ccc3c(c2)OCO3)S(=O)(=O)c2ccc(OC)cc2)CC1 (some centres undefined)
14	COc1ccc(S(=O)(=O)N(Cc2ccc3c(c2)OCO3)[C@H](CNC(=O)c2ccccc2)C(=O)NO)cc1
2500	COc1ccc(S(=O)(=O)N(Cc2ccc3c(c2)OCO3)[C@H](CCNC(=O)CNc2cnccn2)C(=O)NO)cc1
960	COc1ccc(S(=O)(=O)N(Cc2ccc3c(c2)OCO3)[C@H](CCNC(=O)c2c(-c3ccccc3)noc2C)C(=O)NO)cc1
840	COC(=O)c1ccc(C(=O)NCC[C@H](C(=O)NO)N(Cc2ccc3c(c2)OCO3)S(=O)(=O)c2ccc(OC)cc2)cc1
7	COC(=O)c1ccc(C(=O)NC[C@H](C(=O)NO)N(Cc2ccc3c(c2)OCO3)S(=O)(=O)c2ccc(OC)cc2)cc1
